Assay [1] has as its target T1, Histone acetyltransferase p300 [1049-1156] (UniProt Q09472).
T1 construct: 1049-1156
T1 sequence (Q09472 whole entry): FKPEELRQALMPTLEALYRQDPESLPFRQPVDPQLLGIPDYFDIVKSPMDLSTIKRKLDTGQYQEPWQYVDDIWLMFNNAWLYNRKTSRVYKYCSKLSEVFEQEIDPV
The assay can be described thus: Inhibitory Activity of Compounds on the Bromodomain (BRD) of CBP/EP300. As for the experimental part:
(§1) A. Experimental MethodCBP and EP300AlphaScreen Test:1. Prepare 1× concentration of test buffer2. Preparation of compoundThe compound was firstly diluted in a ratio of 1:1000 relative to the final concentration using a Precision automatic sampler (by 3× gradient dilution method):1) 50 μL of compound solution with a storage concentration of 10 mM was transferred to A2 well of a 96-well plate using an Echo automatic sampler.2) 30 μL of DMSO was transferred to well A1, and wells A3 to A12 with Precision™.3) 15 μL solution was transferred from A2 to A3 by Precision, and this operation was sequentially repeated until 15 μL solution was transferred from well A10 to well A11. Thus, a 1:3 gradient dilution was completed.4) The compound plate was centrifuged at a speed of 1000 r/min for one minute.3. Preparation of test plate20 nL of solution was transferred from each concentration well of the compound plate to the test plate using an Echo automatic sampler: from well A1 of the preparation plate to wells A1 and A2 of the test plate, and from well A2 of the preparation plate to wells A3 and A4 of the test plate.4. Binding test of bromodomain (BRD)1) Preparation of 2-fold solution of protein and polypeptideThe protein and polypeptide were dissolved in a 1× concentration of detection buffer.2) 10 μL of protein and polypeptide solution was transferred to each well in columns 3 to 24 in the test plate, and 10 μL of 1× test buffer was transferred to wells in columns 1 to 2 in the test plate as negative control.3) The test plate was centrifuged at a speed of 1000 r/min for one minute.4) The test plate was incubated at room temperature for 15 min.5) A 2-fold receptor and donor solution was prepared by dissolving acceptor and donor beads with one-fold test buffer.6) 2-fold receptor and donor solutions were transferred to the test plate.15 μL of acceptor and donor solution was added and light was avoided.7) The test plate was centrifuged at a speed of 1000 r/min for one minute and then incubated at room temperature for 60 min.5. The Endpoints were Read in EnSpire and Alpha Modes.6. Curve fitting

Assay [2] deals with T2, CREB-binding protein [1085-1192] (UniProt Q92793).
T2 construct: 1085-1192
Described as above. Here is the method: as §1

This is an account of results in BindingDB's records for patent US12497392 (Hinova Pharmaceuticals, 2025).

pIC50: −log10 of the molar value.

T2 sequence (Q92793 1085-1192): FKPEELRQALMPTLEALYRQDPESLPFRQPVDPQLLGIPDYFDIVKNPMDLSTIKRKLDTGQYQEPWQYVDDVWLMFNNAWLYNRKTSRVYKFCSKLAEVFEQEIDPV

Regarding `CO[C@H]1CC[C@H](n2c([C@@H]3CCOCC(=O)N3C3=CC(F)C(F)C=C3)nc3cc(C4C(C)=NOC4C)ccc32)CC1` (stereo partly specified) [US12497392, Compound 106], the values for the pIC50 in assay [1] and in assay [2] were 8.66 and 8.32, respectively.
On the same counts, the results for `COc1cccc(-c2nc3cc(C4C(C)=NOC4C)ccc3n2[C@H]2CC[C@H](OC)CC2)c1C1=CC(F)C(F)C=C1` (stereo partly specified) [US12497392, Compound 141] are 8.02 and 7.66.
Take `CO[C@H]1C[C@@H](n2c([C@@H]3CCOC(=O)N3C3=CC(F)C(F)C=C3)nc3cc(C4C(C)=NOC4C)ccc32)C1` (stereo partly specified) [US12497392, Compound 143]: the pIC50 (in general, −log10 of the IC50, conventionally taken in molar units) in assay [1] was 8.57; in assay [2], 8.33.
